Test results: patent publication US20080234306A1, “N-Oxides of 4,5-Epoxy-Morphinanium Analogs” (Progenics Pharmaceuticals, Inc., priority 2006, published 2008)

Legend:
[1] = system: T1, μ-opioid receptor; experiment: Evaluation of agonist activity at the μ-opioid receptor, guinea pig ileum test
T1 construct: Responses to increasing concentrations of the compounds (% control response to DAMGO); other: compound 1.0E^−04 M; Responses to increasing concentrations of the compounds (% control response to DAMGO); other: compound 1.0E^−08 M; other: compound 3.0E^−08 M; Responses to increasing concentrations of the com
Procedure: (§1) Evaluation for Agonist and Antagonist Activities at the […] Receptors in the Guinea Pig Ileum
(§2) Agonist/antagonist activity at the μ-opioid receptor was determined using the well known guinea pig ileum test. Briefly, an a section of ileum was placed in a stabilized solution in a tensed state. Transducers were used to measure changes in tension upon electrical stimulation to the tissue before and after challenge with a potential agonist/antagonist Using a control, constriction inhibition, and constriction inhibition cancellation, may be measured.

[2] = target: human μ-receptor (Homo sapiens, UniProt P35372); experiment: human μ-receptor model (binding, Ki); details: read-out: % Inhibition at 1 × 10^−5 M
human μ-receptor, sequence (P35372 whole entry): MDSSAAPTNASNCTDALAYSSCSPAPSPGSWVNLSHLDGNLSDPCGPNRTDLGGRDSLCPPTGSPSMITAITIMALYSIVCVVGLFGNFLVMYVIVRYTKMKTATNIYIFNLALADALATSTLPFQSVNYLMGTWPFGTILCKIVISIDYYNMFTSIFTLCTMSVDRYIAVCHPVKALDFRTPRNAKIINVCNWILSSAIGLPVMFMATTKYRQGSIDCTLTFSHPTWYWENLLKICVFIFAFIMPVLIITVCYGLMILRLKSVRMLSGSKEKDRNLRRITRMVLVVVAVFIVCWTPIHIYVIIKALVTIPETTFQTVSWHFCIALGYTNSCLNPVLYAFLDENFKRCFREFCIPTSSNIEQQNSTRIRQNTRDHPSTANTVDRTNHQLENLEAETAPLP

[3] = target: T2, μ-opioid receptor (Cavia porcellus, UniProt A0ACM8Q262); experiment: Evaluation of antagonist activity at the μ-opioid receptor, guinea pig ileum test (tissue model, responses to DAMGO); details: for IC50: tissue model for antagonist activity
T2 sequence (A0ACM8Q262 1-400): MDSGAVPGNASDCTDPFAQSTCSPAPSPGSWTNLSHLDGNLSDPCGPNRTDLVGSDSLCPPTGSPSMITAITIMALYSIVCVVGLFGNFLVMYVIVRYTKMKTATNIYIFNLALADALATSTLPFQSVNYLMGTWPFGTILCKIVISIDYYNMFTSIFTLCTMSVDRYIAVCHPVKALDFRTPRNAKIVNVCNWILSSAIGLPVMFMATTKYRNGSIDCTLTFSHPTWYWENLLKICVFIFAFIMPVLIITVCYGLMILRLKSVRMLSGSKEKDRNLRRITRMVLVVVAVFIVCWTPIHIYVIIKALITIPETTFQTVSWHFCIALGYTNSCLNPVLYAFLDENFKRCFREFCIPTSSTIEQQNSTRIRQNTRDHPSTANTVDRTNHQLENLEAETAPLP
Procedure: as §1, §2

[4] = target: T2, μ-opioid receptor; experiment: Evaluation of agonist activity at the μ-opioid receptor, guinea pig ileum test
Procedure: as §1, §2

[5] = guinea pig, read-out: Responses to DAMGO (1.0E−07 M) in the presence of increasing concentrations of the compounds (% control response)

[O-][N+]1(CC2CC2)CC[C@]23c4c5ccc(O)c4O[C@H]2[C@@H](O)CC[C@@]3(OCCCc2ccccc2)[C@H]1C5 (stereo partly drawn)
melting point: 155 to 159 °C

O=C1CC[C@H]2[C@H]3Cc4ccc(O)c5c4[C@@]2(CC[N+]3([O-])CC2CC2)[C@H]1O5 (stereo partly drawn)
melting point: 209 to 211 °C

C=C1CC[C@@]2(OCCCc3ccccc3)[C@H]3Cc4ccc(O)c5c4[C@@]2(CC[N+]3([O-])CC2CC2)[C@H]1O5.O=C(O)C(F)(F)F (stereo partly drawn)
melting point: 182 °C (dec.)

O=C1CC[C@@]2(O)[C@H]3Cc4ccc(O)c5c4[C@@]2(CC[N+]3([O-])CC2CC2)[C@H]1O5 (stereo partly drawn) [Compound C0001, (S)-17-Cyclopropylmethyl-4,5α-epoxy-3,14-hydroxy-morphinan-6-one N-oxide]
Responses to increasing concentrations of the compounds (% control response to DAMGO) ([1]; compound 1.0E^−04 M): 0%
Responses to increasing concentrations of the compounds (% control response to DAMGO) ([1]; compound 1.0E^−05 M): 0%
Responses to increasing concentrations of the compounds (% control response to DAMGO) ([1]; compound 1.0E^−06 M): 0%
Responses to increasing concentrations of the compounds (% control response to DAMGO) ([1]; compound 1.0E^−07 M): 0%
Responses to increasing concentrations of the compounds (% control response to DAMGO) ([1]; compound 1.0E^−08 M): 0%
Responses to increasing concentrations of the compounds (% control response to DAMGO) ([1]; compound 3.0E^−05 M): 0%
Responses to increasing concentrations of the compounds (% control response to DAMGO) ([1]; compound 3.0E^−06 M): 0%
Responses to increasing concentrations of the compounds (% control response to DAMGO) ([1]; compound 3.0E^−07 M): 0%
Responses to increasing concentrations of the compounds (% control response to DAMGO) ([1]; compound 3.0E^−08 M): 0%
agonistic activity ([1]; concentration of 1.0×10^−4 M, versus DAMGO): No agonistic activity
inhibition at 10 µM [2]: 96%
remaining activity at 0.01 µM [3, 5]: 100%
remaining activity at 0.03 µM [3, 5]: 91%
remaining activity at 0.1 µM [3, 5]: 80%
remaining activity at 0.3 µM [3, 5]: 62%
remaining activity at 1 µM [3, 5]: 36%
remaining activity at 3 µM [3, 5]: 23%
remaining activity at 10 µM [3, 5]: 16%
remaining activity at 30 µM [3, 5]: 16%
remaining activity at 100 µM [3, 5]: 16%
IC50 [3]: 0.56 µM

C=C1CC[C@@]2(O)[C@H]3Cc4ccc(O)c5c4[C@@]2(CC[N+]3([O-])CC2CC2)[C@H]1O5 (stereo partly drawn) [Compound C0002]
inhibition at 10 µM [2]: 94%
IC50 [3]: > 100 µM

Oc1ccc2c3c1O[C@H]1[C@@H](O)CC[C@@]4(O)[C@@H](C2)[N+](O)(CC2CC2)CC[C@]314 (stereo partly drawn) [Compound C0003, (S)-17-Cyclopropylmethyl-4,5α-epoxy-morphinan-3,6α,14-triol N-oxide]
inhibition at 10 µM [2]: 100%

[O-][N+]1(CC2CC2)CC[C@]23c4c5ccc(O)c4O[C@H]2[C@@H](Cn2ccnc2)CC[C@@]3(O)[C@H]1C5 (stereo partly drawn) [Compound C0018, 17-Cyclopropylmethyl-4,5α-epoxy-3,14-dihydroxy-6α-(1H-imidazol-1-yl)methyl morphinan N-oxide]
inhibition at 10 µM [2]: 89%

[O-][N+]1(CC2CC2)CC[C@]23c4c5ccc(O)c4O[C@H]2[C@@H](CO)CC[C@@]3(O)[C@H]1C5 (stereo partly drawn) [Compound C0021, 17-cyclopropylmethyl-4,5α-epoxy-3,14-dihydroxy-6α-hydroxymethyl morphinan N-oxide]
inhibition at 10 µM [2]: 95%

[O-][N+]1(CC2CC2)CC[C@]23c4c5ccc(O)c4O[C@H]2CCC[C@@]3(O)[C@H]1C5 (stereo partly drawn) [Compound C0023, 17-Cyclopropylmethyl-4,5α-epoxy-3,14-dihydroxymorphinan-N-oxide]
inhibition at 10 µM [2]: 101%

CC1C[C@@]2(O)[C@H]3Cc4ccc(O)c5c4[C@@]2(CC[N+]3([O-])CC2CC2)[C@@H](O5)C1=O (stereo partly drawn) [Compound C0030, (S)-17-Cyclopropylmethyl-4,5α-epoxy-3,14-dihydroxy-7-methyl-morphinan-6-one N-oxide]
inhibition at 10 µM [2]: 67%

C[C@@H](NC(=O)[C@@H](N)Cc1ccc(O)cc1)C(=O)NCC(=O)N(C)[C@@H](Cc1ccccc1)C(=O)NCCO [DAMGO, D-Ala^2,N-Me-Phe^4,Gly^5-ol-enkephalin, reference compound]
Response + Naloxone (1.0E^−07 M) ([4]; after highest compound concentration, + naloxone 1.0E^−07 M): 4%
activation at 1 µM ([4]; compound 1.0E^−06 M, read-out: Responses to increasing concentrations of the compounds (% control response to DAMGO)): 103%
activation at 0.1 µM ([4]; compound 1.0E^−07 M, read-out: Responses to increasing concentrations of the compounds (% control response to DAMGO)): 96%
activation at 0.01 µM ([4]; compound 1.0E^−08 M, read-out: Responses to increasing concentrations of the compounds (% control response to DAMGO)): 57%
activation at 0.001 µM ([4]; compound 1.0E−09 M, read-out: Responses to increasing concentrations of the compounds (% control response to DAMGO)): 9%
